# pIC50: −log10 of the molar value.
# Columns and labels:
# [1] = test system: platelet rich plasma (PRP) from rabbits; assay: Inhibitory activities on platelet aggregation (arachidonic acid-induced, transmittance); assay type: cell-based; conditions: test drug 10^-6 M, rabbit PRP, aggregation induced by arachidonic acid (0.1 mM); for inhibition at 1 µM: Oryctolagus cuniculus, Platelet, read-out: Experiment 1 10^-6 M inhibition (%)
# Protocol: Experiment 1 (Inhibitory activities on platelet aggregation)
# Platelet aggregation of platelet rich plasma (PRP) from rabbits was measured with the use of an NKK- hematracer (Niko Bioscience). That is, to PRP (200µ 1) was added a test drug or a solvent at 37°C while stirring at 1000 rpm, and an aggregation-inducing agent was added thereto 1 minute later, to measure the changes in transmittance caused by the platelet aggregation. Arachidonic acid (0.1 mM) was used as the aggregation-inducing agent.
# [2] = test system: lipoperoxide production in rat brain; assay: Inhibitory activities on lipoperoxide production in rat brain (MDA yield, TBA method); assay type: biochemical; conditions: rat cerebrum suspension, 37° C for 30 minutes, lipoperoxide measured as MDA yield; read-out: Experiment 2 IC50 value
# Protocol: Experiment 2 (Inhibitory activities on lipoperoxide production in rat brain)
# To male rats weighing about 300 g was intraperitoneally administered 100 mg/kg of sodium pentobar- bital and the rats were exsanguinated to death while anesthetized, after which the cerebrum was extracted. The extracted cerebrum was washed with ice-cooled physiological saline, dried gently, and weighed. Thereto was added 5-fold amount by weight of a 50 mM phosphatesaline buffer (pH 7.4), which was then suspended by an ultradisperser under ice-cooling, followed by centrifugation at 1300 g and at 4 C for 10 minutes. The supernatant was 5-fold diluted with the above buffer, and used as a suspension for measurement.
# The suspension to which the test drug had been added at 1/100 volume was incubated at 37° C for 30 minutes, and the amount of the resulting lipoperoxide was measured as an MDA yield. The assay of MDA was conducted by a modified method based on Smith et al., and the absorbance of the TBA reaction product at 532 nm was measured.
# [3] = test system: TXB2; assay: Assay of TXB2 in serum after oral administration; assay type: in vivo; conditions: 10 mg/kg orally, male rats, blood taken 1 hour later, incubated at 37° C for 90 minutes, Control 192.5
# Protocol: Experiment 3 (Assay of TXB2)
# The test drug was orally administered to male rats, and 1 hour later, a blood sample was taken from ventral aorta via a polyethylene tube while anesthetized with ether. The blood taken was immediately incubated at 37° C for 90 minutes, and TXB2 was extracted from the serum separated, followed by assay using a [^3H]RIA Kit.
Compound,inhibition at 1 µM [1] [%],pIC50 [2],TXB2 [3] [ng/mL],Experiment 1 10^-6 M inhibition (%) [1] [%]
CCCOc1ccc2c(c1)C(CCn1ccnc1)CN2CCC(=O)OCC (stereo not shown) [Example 18],21.8,,,
"CCCCCCOc1ccc2c(c1)C(CCn1ccnc1)CN2CCC(=O)OCC (stereo not shown) [Example 8, Ethyl 5-hexyloxy-3-[2-(1 H-imidazol-1-yl)ethyl]-1-indolinepropionate]",20.8,5.59,,
CC(C)c1ccc2c(c1)C(CCn1ccnc1)CN2CCC(=O)O (stereo not shown) [Example 15],1.6,4.61,,
C=CCOc1ccc2c(c1)C(CCn1ccnc1)CN2CCC(=O)O (stereo not shown) [Example 31],0.2,4.69,,
CCOC(=O)CCN1CC(CCn2ccnc2)c2cc(C3CCCCC3)ccc21 (stereo not shown) [Example 16],2.1,,,
C=CCOc1ccc2c(c1)C(CCn1ccnc1)CN2CCC(=O)OCC (stereo not shown) [Example 30],28.4,,,
"O=C(O)CCCC/C=C(\c1ccccc1)c1cccnc1 [CV-4151, reference compound]",,,11.0,
CCCOc1ccc2c(c1)C(CCn1ccnc1)CN2CCC(=O)O (stereo not shown) [Example 19],3.6,4.71,,
O=C(O)CCN1CC(CCn2ccnc2)c2cc(C3CCCCC3)ccc21 (stereo not shown) [Example 17],15.7,5.69,,
CCCc1ccc2c(c1)C(CCn1ccnc1)CN2CCC(=O)OCC (stereo not shown) [Example 12],19.7,5.32,,
CCOC(=O)CCN1CC(CCn2ccnc2)c2cc(C(C)C)ccc21 (stereo not shown) [Example 14],14.5,5.22,,
CCOC(=O)CCN1CC(CCn2ccnc2)c2cc(OC)ccc21 (stereo not shown) [Example 10],54.5,4.73,,
CCCCCCCOc1ccc2c(c1)C(CCn1ccnc1)CN2CCC(=O)OCC (stereo not shown) [Example 22],37,,,
CCCc1ccc2c(c1)C(CCn1ccnc1)CN2CCC(=O)O (stereo not shown) [Example 13],10.4,4.66,,
"O=C(O)CCN1CC(CCn2ccnc2)c2ccccc21 (stereo not shown) [Example 2, 3-[2-(1 H-Imidazol-1-yl)ethyl]-1-indolinepropionic acid]",8.7,,,
CCCCCCCCCCCCOc1ccc2c(c1)C(CCn1ccnc1)CN2CCC(=O)O (stereo not shown) [Example 29],12.1,6.62,,
"O=C(O)/C=C/c1ccc(Cn2ccnc2)cc1 [OKY-046, reference compound]",4,,,
CCOC(=O)CCN1CC(CCn2ccnc2)c2ccccc21 (stereo not shown) [Example 1],40.3,4.03,,
CCCCCOc1ccc2c(c1)C(CCn1ccnc1)CN2CCC(=O)O (stereo not shown) [Example 21],5.5,5.74,6.7,
COc1ccc2c(c1)C(CCn1ccnc1)CN2CCC(=O)O (stereo not shown) [Example 11],36,4.14,,
Ethyl 3-[2-(1 H-imidazol-1-yl)ethyl]-1-indolineacetate [Example 5],,4.60,,20.3
CCCCCOc1ccc2c(c1)C(CCn1ccnc1)CN2CCC(=O)OCC (stereo not shown) [Example 20],45.2,5.69,5.1,
CCCCCCCCCOc1ccc2c(c1)C(CCn1ccnc1)CN2CCC(=O)OCC (stereo not shown) [Example 26],40.5,,,
CCCCCCCCCOc1ccc2c(c1)C(CCn1ccnc1)CN2CCC(=O)O (stereo not shown) [Example 27],27,6.59,4.8,
CCCCCCCOc1ccc2c(c1)C(CCn1ccnc1)CN2CCC(=O)O (stereo not shown) [Example 23],11.5,6.60,,
"CCCCCCOc1ccc2c(c1)C(CCn1ccnc1)CN2CCC(=O)O (stereo not shown) [Example 9, 5-Hexyloxy-3-[2-(1H-imidazol-1-yl)ethyl]-1-indolinepropionic acid]",28.3,,,

# — patent publication EP0427860A1, “NEW IMIDAZOLE DERIVATIVES, PRODUCTION THEREOF, AND USES THEREOF AS MEDICINES” (Kyoto Pharmaceutical Industries, Ltd., priority 1989, dated 1990)
